Measurements as given in patent US8871789B2, “Method of preventing or treating viral infection” (The United States of America, as represented by the …, priority 2010, dated 2014).

What was measured:
HSV-1 [1] = assay: IE mRNA levels in explanted latently infected ganglia; type: cell-based, mice; details: 7 hours post explant; ICP4 and ICP27 mRNA; FIG. 12
Procedure: Total RNA was isolated and subjected to reverse transcription. The resulting cDNAs were analyzed for viral Immediate Early ICP4 and ICP27 mRNAs relative to an infected cell standard by nested or qPCR. In accordance with an embodiment of the invention, DMOG reduces the levels of viral mRNAs in explanted/reactivated ganglia.
IE gene transcription is repressed in explanted latently infected sensory ganglia in the presence of DMOG (FIG. 12). Total RNA was extracted from ganglia of latently infected mice explanted in the presence of control ACV or DMOG for 7 hours. Random primed cDNA was produced from total RNA using RNAqueous-4PCR and RETROscript (Ambion, Austin, Tex., USA) according to the manufacturer's recommendations. cDNAs were quantitated by nested PCR or qPCR using primers specific for the HSV-1 ICP4 and ICP27 IE mRNAs.

HSV-1 [2] = assay: HSV-1 ICP4 protein levels in infected HeLa cells (quantitative western blot); type: cell-based; details: increasing concentrations of DMOG, HSV-1 0.1 PFU/cell 3 hrs, FIG. 6
Procedure: HSV-1 IE protein levels of ICP4 decrease in cells infected in the presence of DMOG. HeLa cells were infected with HSV-1 at 0.1 PFU/cell for 3 hrs in the presence of increasing concentrations of DMOG. Cells were harvested and the levels of viral IE proteins (ICP4 shown) were determined by quantitative western blot analyses. As the concentration of DMOG is increased, the levels of ICP4 decrease (FIG. 6).

HSV-1 [3] = type: cell-based, Balb/c mice; parameters: reduction of viral reactivation (viral yield): unit of the concentration uncertain
Procedure: FIG. 18 is a dot plot showing latently infected ganglia that were explanted in the presence of DMSO, ACV (100 mM), or ML324 (50 mM) for 48 hrs. Viral yields were determined from one half of each ganglia at 48 hrs (DMSO, ACV, ML324) and from the other half of each ganglia after drug reversal for an additional 72 hrs (ACV-R, ML324-R) [Wilcoxon matched pairs signed rank test, ACV vs ACV-R n=8, ML324 vs ML324-R n=10]. Data are means±SEM.
FIG. 19 is a dot plot showing viral yields from HSV-1 latently infected trigeminal ganglia that were explanted in the presence of DMSO, or 2 mM DMOG or 50 mM ML324 for 48 hours (DMSO versus DMOG: P=0.0015, Wilcoxon matched-pairs signed rank test; n=12; DMSO versus ML324: P<0.0001; n=20). Data are means±SEM.
Viral yields decrease from HSV-1 latently infected ganglia explanted in the presence of LSD1 or JMJD2 inhibitors (FIG. 11). Balb/c mice were infected with 5×10^6 PFU HSV-1 (strain F) per eye after corneal scarification. Latently infected mice were sacrificed 45 days post clearance of the primary infection and trigeminal ganglia were rapidly explanted into culture in the presence of 2 mM DMOG, 2 mM TCP, or control (DMSO or ACV, acyclovir) for 48 hours. Post explant incubation, the ganglia were homogenized and briefly sonicated. The reactivated viral yield of each ganglia was determined by titering the clarified supernatant on Vero cells. Statistical comparisons were made using Wilcoxon signed rank test (paired ganglia) with a statistical significance of <0.05. Each data point was the result of a single ganglia divided and treated in the presence and absence of DMSO and DMOG or DMSO and TCP. Therefore, a Wilcoxon signed rank test was used to assess differences between each treated and untreated sample. The significant difference between DMSO control and DMOG was p=0.0018. This test used an exact p-value for small sample sizes with an a level of 0.05. n=20. Analyses were made using Prism (V5.0a) and are expressed as the mean+/−s.e.m.

CMV = CMV IE gene expression in HFF cells; type: cell-based; details: increasing concentration of DMOG, FIG. 9
Source text: CMV IE gene expression (IE1 and UL37) and control TBP (Tata binding Protein) in the presence of increasing concentrations of DMOG were also studied (FIG. 9). HFF were pretreated with the indicated concentration of DMOG for 3.5 hrs and infected with CMV for 4 hrs. Total RNA was extracted, reverse-transcribed, and cDNAs were quantitated by qPCR using primers to viral IE genes or control genes.

HSV-1 [4] = assay: HSV-1 lytic viral yields from HFF cells; type: cell-based; details: HFF pretreated 5 hrs, HSV-1 0.1 pfu/cell 24 hrs; FIG. 10
Procedure: FIG. 14 is a bar graph showing viral yields from HFF cells treated with DMSO or ML324 for 3 hours and infected with HSV-1 (0.1 PFUper cell) for 24 hours in the presence of the drugs. *P<0.004, one-way ANOVA with Dunnett's post hoc test. Data are means±SEM.
HSV-1 lytic viral yields decrease in the presence of DMOG (FIG. 10). HFF cells were pretreated with DMSO control or JMJD2 inhibitor DMOG for 5 hrs and infected with 0.1 pfu/cell of HSV-1 for 24 hrs in the presence of DMSO or DMOG. The yield of infectious virus derived from each treatment were determined by tittering on Vero cells according to standard procedures.

HSV-1 [5] = assay: HSV-1 IE mRNA levels in infected HFF cells; type: cell-based; details: increasing concentration of DMOG, HFF, FIG. 7
Procedure: FIG. 13 is a line graph showing viral IE (ICP4, ICP27, and ICP22) and control (S15, Sp1, and TBP) mRNA levels in HFF cells treated with DMSO or the indicated concentrations of ML324 for 3 hours and infected with HSV-1 (0.1 PFU per cell) for 3 hours. *P<0.0001, two-way ANOVA with Tukey's post hoc test. Data are means±SEM.
HSV-1 IE mRNA levels of ICP4 and ICP27 decrease in cells infected in the presence of DMOG. Human foreskin fibroblast (HFF) cells were infected with HSV-1 at 0.1 PFU/cell for 3 hrs in the presence of increasing concentrations of DMOG. Cells were harvested and the levels of viral IE (ICP4, ICP27) and cell control (s15) mRNAs were assessed by qRT-PCR.
All experiments were performed as described in Liang et al., Sci. Transl. Med. 5, 167ra5 (2013). N-(3-(dimethylamino)propyl)-4-(8-hydroxyquinolin-6-yl)benzamide (designated ML324) has the following characteristics: N-(3-(dimethylamino)propyl)-4-(8-hydroxyquinolin-6-yl)benzamide (1). LC-MS: rt (min)=3.033; ^1H NMR (400 MHz, DMSO-d6) δ 1.84-1.98 (m, 2H), 2.79 (s, 3H), 2.80 (s, 3H), 3.12 (ddd, J=10.2 Hz, 5.4 Hz and 5.2 Hz, 2H), 3.37 (q, 2H), 7.50 (s, 1H), 7.66 (dd, J=8.2 Hz and 4.3 Hz, 1H), 7.84 (s, 1H), 7.88-7.94 (m, 2H), 7.96-8.02 (m, 2H), 8.50 (d, J=8.2 Hz, 1H), 8.71 (t, J=5.6 Hz, 1H), 8.90 (d, J=4.1 Hz, 1H), 9.34 (brs, 1H); HRMS (ESI) m/z (M+H)^+ C21H24N3O2, 350.1867. found 350.1863.

HSV-1 IE promoters = assay: ChIP of H3K9me3 / histone H3 on HSV-1 IE promoters in HeLa cells; type: cell-based; details: 2 mM DMOG 4 hours before infection; FIG. 8
Procedure: Hela cells were pretreated with 2 mM DMOG for 4 hours prior to infection. Cells were infected with 0.1 pfu/cell of HSV-1 for 3 hrs. Standard Chromatin-Immunoprecipitation procedures were preformed (Liang, Vogel, Narayanan, Peng & Kristie, 2009, Nature Med 15:1312-17) to determine the levels of total histone H3 or tri-methylated histone H3 associated with the indicated viral IE promoters.

Q: `COC(=O)CNC(=O)C(=O)OC` [DMOG, N-methoxyoxoacetyl-glycine methyl ester] was tested. Which “IE gene transcription in explanted latently infected sensory ganglia” value (HSV-1 [1]) did it give?
A: repressed

Q: What about the “levels of ICP4 protein” value (HSV-1 [2]) of the same molecule?
A: decrease

Q: And the “viral yield from explanted latently infected ganglia” value (HSV-1 [3]; 2 mM DMOG, 2 mM TCP or ACV, 48 hours, FIG. 11)?
A: decreases

Q: And the “reduction of viral reactivation (viral yield)” value (HSV-1 [3]; 2 (unit uncertain), 48 hours explant, FIG. 19)?
A: ~1.5 log

Q: What about the “control mRNA (TBP) level decrease” value (CMV) of the same molecule?
A: does not

Q: And the “CMV IE mRNA levels (IE1/IE7 and UL37)” value (CMV; HFF pretreated 3.5 hrs, CMV 4 hrs)?
A: decrease

Q: And the “HSV-1 lytic viral yields” value (HSV-1 [4])?
A: decrease

Q: And the “mRNA levels of ICP4 and ICP27” value (HSV-1 [5]; HSV-1 0.1 PFU/cell 3 hrs)?
A: decrease

Q: What about the “control mRNA (s15) level decrease” value (HSV-1 [5]) of the same molecule?
A: does not

Q: What about the “repressive chromatin (H3K9me3, H3) on HSV-1 IE promoters” value (HSV-1 IE promoters) of the same molecule?
A: accumulation of repressive chromatin
